Among the data in patent US20230234943A1, “TREX1 INHIBITORS AND USES THEREOF” (Tempest Therapeutics, Inc., priority 2020, published 2023) are IC50 values, retold here.

Each structure is given as a SMILES string.

The experiment has as its target T1, Human TREX1 enzyme (amino acids 1-242) (Homo sapiens, UniProt Q9NSU2).
T1 construct: Human TREX1 enzyme (amino acids 1-242)
T1 sequence (Q9NSU2 1-242): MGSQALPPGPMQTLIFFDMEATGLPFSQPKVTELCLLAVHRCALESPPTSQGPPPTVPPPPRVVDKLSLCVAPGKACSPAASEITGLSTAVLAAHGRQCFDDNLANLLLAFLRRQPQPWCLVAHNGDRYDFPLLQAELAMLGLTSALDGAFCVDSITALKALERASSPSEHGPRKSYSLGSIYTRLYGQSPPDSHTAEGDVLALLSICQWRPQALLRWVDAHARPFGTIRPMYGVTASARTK
In words: Human TREX1 enzymatic assay with dsDNA native oligonucleotide (Picogreen fluorescence). In kind it is biochemical. The conditions noted are these: 2 mM dithiothreitol in assay buffer; 50 nM dsDNA oligonucleotide; 30 min preincubation at 25° C.; read-out: TREX1/Human + DTT IC50 AVG. The method, then: Example A. Human TREX1 Enzymatic Assay with dsDNA Native Oligonucleotide
Human TREX1 enzyme (amino acids 1-242) was diluted in assay buffer (20 mM Tris pH 7.7, 5 mM MgCl2, 0.01% human serum albumin, 0.01% Brij™-35, 2 mM dithiothreitol) to a final concentration of 0.8 nM to 0.16 nM and added to a 96-well low-binding polypropylene plate. Test compounds were diluted in DMSO to 50× concentration (final DMSO concentration in reaction mixture of 2%) and added to the wells with a concentration ranging from 300 μM to 13 nM or 30 μM to 1.5 nM. The reaction mixtures were incubated for 30 minutes at 25° C. and a solution of annealed dsDNA oligonucleotide (5′-[…]-3′ and Comp: 5′-[…]-3′) was added to a final concentration of 50 nM. The reaction mixtures were incubated at 25° C. for 5-15 minutes and subsequently quenched by transferring part of the assay reaction to a solution of 100 mM ethylenediaminetetraacetic acid and 1:100 Picogreen™ (final concentration of […]) in a black plate with an opaque bottom. The fluorescence ([…]) was measured using a Molecular Devices SpectraMax plate reader. Wells containing oligonucleotide but no TREX1 enzyme were used as negative controls. Wells containing oligonucleotide, TREX1 enzyme, and DMSO were used as positive controls.
On to `COc1cc(-c2nc3cc(NC(C)=O)ccc3n2C2CCC2)c(F)c(O)c1O` [Example 313, N-(1-cyclobutyl-2-(2-fluoro-3,4-dihydroxy-5-methoxyphenyl)-1H-benzo[d]imidazol-5-yl)acetamide], for which the IC50 was 0.1 to 1 µM.
The result for `COc1cc(-c2nc3ccc(N4CCC4)cc3n2C2COC2)c(C)c(O)c1O` [Example 283, 4-(6-(azetidin-1-yl)-1-(oxetan-3-yl)-1H-benzo[d]imidazol-2-yl)-6-methoxy-3-methylbenzene-1,2-diol] reads 1 to 10 µM; that for `COc1cc(-c2nc3cc(N4CCN(c5ccccn5)CC4)ccc3[nH]2)cc(O)c1O` [Example 73, 3-methoxy-5-(5-(4-(pyridin-2-yl)piperazin-1-yl)-1H-benzo[d]imidazol-2-yl)benzene-1,2-diol], above 100 µM.
Regarding `COc1cc(-c2nc3cc(N4CCC4)ccc3[nH]2)cc(O)c1O` [Example 4, 5-(5-(azetidin-1-yl)-1H-benzo[d]imidazol-2-yl)-3-methoxybenzene-1,2-diol], the IC50 lay within 1 to 10 µM.
Under `CS(=O)(=O)N1CCN(c2ccc3[nH]c(-c4ccc(C(=O)O)c(O)c4)nc3c2)CC1` [Example 117, 2-hydroxy-4-(5-(4-(methylsulfonyl)piperazin-1-yl)-1H-benzo[d]imidazol-2-yl)benzoic acid] stands 10 to 100 µM; under `COc1cc(-c2nc3cc(N4CCOC4=O)ccc3n2C2(C)COC2)c(F)c(O)c1O` [Example 271, 3-(2-(2-fluoro-3,4-dihydroxy-5-methoxyphenyl)-1-(3-methyloxetan-3-yl)-1H-benzo[d]imidazol-5-yl)oxazolidin-2-one], at most 0.1 µM; under `COc1cc(-c2nc3cc(N4CCCC4)ccc3[nH]2)cc(O)c1O` [Example 137, 3-methoxy-5-(5-(pyrrolidin-1-yl)-1H-benzo[d]imidazol-2-yl)benzene-1,2-diol], 1 to 10 µM.
Under `COc1cc(-c2nc3ccc(C(=O)NCC(F)(F)F)cc3n2C2(C)COC2)c(F)c(O)c1O` [Example 244, 2-(2-fluoro-3,4-dihydroxy-5-methoxyphenyl)-1-(3-methyloxetan-3-yl)-N-(2,2,2-trifluoroethyl)-1H-1,3-benzodiazole-6-carboxamide] stands at most 0.1 µM.
With `O=C(O)c1cc(-c2nc3cc(N4CCC4)ccc3[nH]2)ccc1O` [Example 115, 5-(5-(azetidin-1-yl)-1H-benzo[d]imidazol-2-yl)-2-hydroxybenzoic acid], the IC50 lay within 10 to 100 µM.
On to `COc1cc(-c2nc3cc(N4CC(F)C4)ccc3[nH]2)cc(O)c1O` [Example 145, 5-(5-(3-fluoroazetidin-1-yl)-1H-benzo[d]imidazol-2-yl)-3-methoxybenzene-1,2-diol], for which the IC50 was above 100 µM.
Under `Oc1cc(-c2nc3ccccc3n2C2COC2)c2c(c1O)OCCC2` [Example 163, 5-(1-(oxetan-3-yl)-1H-benzo[d]imidazol-2-yl)chroman-7,8-diol] stands 0.1 to 1 µM.
Consider `Oc1cc(-c2nc3ccccc3n2C2CCC2)cc(OC(F)F)c1O` [Example 333, 5-(1-cyclobutyl-1H-benzo[d]imidazol-2-yl)-3-(difluoromethoxy)benzene-1,2-diol], for which the IC50 is above 100 µM.
Under `COc1cc(-c2nc3cc(N4CCN(C)C(=O)C4)ccc3[nH]2)cc(O)c1O` [Example 108, 4-(2-(3,4-dihydroxy-5-methoxyphenyl)-1H-benzo[d]imidazol-5-yl)-1-methylpiperazin-2-one] stands 1 to 10 µM.
`COc1cc(-c2nc3ccc(N4CCC4)cc3n2C2COC2)cc(O)c1O` [Example 285, 5-(6-(azetidin-1-yl)-1-(oxetan-3-yl)-1H-benzo[d]imidazol-2-yl)-3-methoxybenzene-1,2-diol]: the IC50 was in the range of 1 to 10 µM.
The result for `COc1c(C)c(-c2nc3ccccc3n2C2CCC2)c(F)c(O)c1O` [Example 297, 4-(1-cyclobutyl-1H-benzo[d]imidazol-2-yl)-3-fluoro-6-methoxy-5-methylbenzene-1,2-diol] reads 10 to 100 µM.
For the compound `COc1cc(-c2nc3cc(N4CCN(C(=O)c5ccc(C(F)(F)F)cc5)CC4)ccc3[nH]2)cc(O)c1O` [Example 102, (4-(2-(3,4-dihydroxy-5-methoxyphenyl)-1H-benzo[d]imidazol-5-yl)piperazin-1-yl)(4-(trifluoromethyl)phenyl)methanone], the IC50 is above 100 µM.
Under `COc1cc(-c2nc3cc(N4CCC4)ccc3n2C)c(C(F)(F)F)c(O)c1O` [Example 221, 4-(5-(azetidin-1-yl)-1-methyl-1H-benzo[d]imidazol-2-yl)-6-methoxy-3-(trifluoromethyl)benzene-1,2-diol] stands 1 to 10 µM; under `COc1cc(-c2nc3ccc(N4CCOCC4=O)cc3n2C2(C)COC2)c(F)c(O)c1O` [Example 277, 4-(2-(2-fluoro-3,4-dihydroxy-5-methoxyphenyl)-1-(3-methyloxetan-3-yl)-1H-benzo[d]imidazol-6-yl)morpholin-3-one], 1 to 10 µM.
The result for `COc1cc(-c2nc3cc(N4CCN(C(=O)c5cccc(C(F)(F)F)c5)CC4)ccc3[nH]2)cc(O)c1O` [Example 103, (4-(2-(3,4-dihydroxy-5-methoxyphenyl)-1H-benzo[d]imidazol-5-yl)piperazin-1-yl)(3-(trifluoromethyl)phenyl)methanone] reads above 100 µM.
The result for `COc1cc(-c2nc3ccc(C(=O)NC(C)C)cc3n2C2(C)COC2)c(F)c(O)c1O` [Example 252, 2-(2-fluoro-3,4-dihydroxy-5-methoxyphenyl)-N-isopropyl-1-(3-methyloxetan-3-yl)-1H-benzo[d]imidazole-6-carboxamide] reads at most 0.1 µM; that for `COc1cc(-c2nc3c(N4CCOCC4)nccc3[nH]2)cc(O)c1O` [Example 110, 3-methoxy-5-(4-morpholino-1H-imidazo[4,5-c]pyridin-2-yl)benzene-1,2-diol], above 100 µM.
For `COc1cc(-c2nc3cc(N4CC5(CNC5)C4)ccc3[nH]2)cc(O)c1O` [Example 142, 5-(5-(2,6-diazaspiro[3.3]heptan-2-yl)-1H-benzo[d]imidazol-2-yl)-3-methoxybenzene-1,2-diol], the IC50 is above 100 µM.
Under `COc1c(C)c(-c2nc3cc(N4CCC4)ccc3n2C2CCC2)c(F)c(O)c1O` [Example 200, 4-[5-(azetidin-1-yl)-1-cyclobutyl-1H-1,3-benzodiazol-2-yl]-3-fluoro-6-methoxy-5-methylbenzene-1,2-diol] stands 1 to 10 µM.
Under `COc1cc(-c2nc3ccc(C(=O)NC45CC(C4)C5)cc3n2C2(C)COC2)c(F)c(O)c1O` [Example 249, N-(bicyclo[1.1.1]pentan-1-yl)-2-(2-fluoro-3,4-dihydroxy-5-methoxyphenyl)-1-(3-methyloxetan-3-yl)-1H-benzo[d]imidazole-6-carboxamide] stands at most 0.1 µM; under `COc1cc(-c2nc3cc(NC(=O)C4CC4)ccc3n2C2(C)COC2)c(F)c(O)c1O` [Example 204, N-[2-(2-fluoro-3,4-dihydroxy-5-methoxyphenyl)-1-(3-methyloxetan-3-yl)-1H-1,3-benzodiazol-5-yl]cyclopropanecarboxamide], at most 0.1 µM.
Under `COc1cc(-c2nc3cc(N4CCN(C)CC4)ccc3n2C2COC2)cc(O)c1O` [Example 60, 3-methoxy-5-(5-(4-methylpiperazin-1-yl)-1-(oxetan-3-yl)-1H-benzo[d]imidazol-2-yl)benzene-1,2-diol] stands 10 to 100 µM; under `COc1cc(-c2nc3cc(N4CCC4)ccc3n2C2COC2)c(C)c(O)c1O` [Example 187, 4-(5-(azetidin-1-yl)-1-(oxetan-3-yl)-1H-benzo[d]imidazol-2-yl)-6-methoxy-3-methylbenzene-1,2-diol], 1 to 10 µM.
As to `COc1cc(-c2nc3cc(NC(=O)c4ccccn4)ccc3n2C2(C)COC2)c(F)c(O)c1O` [Example 203, N-[2-(2-fluoro-3,4-dihydroxy-5-methoxyphenyl)-1-(3-methyloxetan-3-yl)-1H-1,3-benzodiazol-5-yl]pyridine-2-carboxamide], the IC50 is at most 0.1 µM.
The result for `COc1cc(-c2nc3cc(N4CCN(Cc5ccc6ccccc6c5)CC4)ccc3[nH]2)cc(O)c1O` [Example 82, 3-methoxy-5-(5-(4-(naphthalen-2-ylmethyl)piperazin-1-yl)-1H-benzo[d]imidazol-2-yl)benzene-1,2-diol] reads above 100 µM; that for `COc1cc(-c2nc3cc(N4CCN(C(=O)c5cccc(C)c5)CC4)ccc3[nH]2)cc(O)c1O` [Example 154, (4-(2-(3,4-dihydroxy-5-methoxyphenyl)-1H-benzo[d]imidazol-5-yl)piperazin-1-yl)(m-tolyl)methanone], 1 to 10 µM; that for `COc1c(C)c(-c2nc3ccccc3n2C2(C)COC2)cc(O)c1O` [Example 201, 3-methoxy-4-methyl-5-[1-(3-methyloxetan-3-yl)-1H-1,3-benzodiazol-2-yl]benzene-1,2-diol], 10 to 100 µM.
